According to patent US11969402B2, “Compositions and methods for skin rejuvenation” (THE JOHNS HOPKINS UNIVERSITY, priority 2019, dated 2024):

Tests used:
[1] = system: human scalp keratinocytes; assay: Western blot / immunostaining of ALDH1A3, KRT15, KRT19 in human keratinocytes; type: cell-based; details: human keratinocytes
Method: (§1) BMS493 treatment. BMS493 pan-RARs antagonist (1 μM) was pre-treated into keratinocytes for an hour and cells were incubated with RA (0.1 μM and 0.5 μM for human and mouse keratinocytes, respectively) or Poly (I:C) (0.1 μg per ml for both human and mouse keratinocytes) for 48 hrs. At the end of the experiment, cells were harvested for RNA and protein extraction to do further analysis including qRT-PCR and western blot.
Western blot analysis. Human and mouse keratinocytes were disrupted in M-PER lysis buffer (Thermo Fisher Scientific, #78501) containing protease inhibitors (Thermo Fisher Scientific, #87786) using ultrasonic homogenizer (20% power with 5 times every 2 seconds) to extract proteins. Then, protein concentrations were determined by BCA method (Thermo Fisher Scientific, #23225). Western blot procedures were followed by the protocol of NuPAGE system (Thermo Fisher Scientific). Briefly, 20 μg of protein samples were loaded for electrophoresis and transferred to polyvinylidene di-fluoride (PVDF) membrane (Bio-Rad, Hercules, CA). After blocking for at least an hour in 5% non-fat dry milk, the membrane was incubated with primary antibodies with appropriate dilutions (Table 2) at 4° C. overnight and followed by incubation with secondary antibodies for 1 hour at room temperature. Protein amounts were normalized to rabbit polyclonal anti-human β-actin antibody (1:1,000 dilution) (Cell Signaling Technology). Finally, proteins were visualized using SuperSignal West Pico PLUS chemiluminescent substrate kit (Thermo Fisher Scientific, #34577) and saved as image files using ChemiDoc XRS^+ (Bio-Rad). The signal intensity of protein was quantified using Image Lab software (Bio-Rad). Original images of representative blots were provided in the Source data file.
Immunofluorescence. For tissues, frozen-sections of mouse skin samples were stained with primary antibodies with appropriate dilution at 4° C. overnight, followed by incubation with goat anti-rabbit IgG labeled with Alexa Flour® 488 (Life Technologies) and 594 (Life Technologies) for 1 hour at room temperature. For cells, keratinocytes (3×10^5 cells) plated on cover-slip were fixed with 4% Paraformaldehyde (PFA) for 10 min, permeabilized in PBS including 0.5% Triton X-100 for 15 min at room temperature. After washing with PBS 3 times, cells were stained with primary antibodies overnight at 4° C., followed by incubation with goat anti-rabbit or mouse IgG labeled with Alexa Flour® 488 for 1 hour at room temperature. Cell nuclei were visualized by mounting medium including DAPI (Vector Laboratories, Burlingame, CA, H-1200). Fluorescence images were observed by fluorescence microscopy (Leica microsystems), taken pictures with ×100 (low magnification) and ×200 (high magnification), and saved as image files.

[2] = system: keratinocytes of Tlr3−/− mice; assay: Western blot of stem cell markers in keratinocytes of Tlr3-/- mice; type: cell-based, mouse; details: keratinocytes of Tlr3−/− mice, BMS493 1 μM pre-treated
Method: Adult keratinocytes isolation and cultures. For human keratinocytes, 3-mm skin biopsies were taken from areas of the occipital scalp through above IRB protocols using enzyme digestion method as described in the literature^30,31. For mouse keratinocytes, tails of adult mice were used and followed by the same protocol of human keratinocytes. Briefly, the skin fragments were incubated in 0.4% dispase II solution overnight at 4° C., allowing separation of epidermis from dermis. Then epidermis was incubated with 0.25% trypsin-EDTA (Lonza, Walkersville, MD) to isolate keratinocytes for 5 min at 37° C. Adult keratinocytes were maintained in KGM including defined growth factors (KGM-GOLD Bullet kit, #192060) (Lonza) and supplemented with 10 μM of ROCK inhibitor (Y-27632) (Cayman Chemical, #10005583) until use^32. For all in vitro experiments, primary keratinocytes were passaged at least once to eliminate contaminating other cells isolated from epidermis and used at passage 2-4 for human and passage 1-2 for mouse keratinocytes.
as §1
Western blot analysis. Human and mouse keratinocytes were disrupted in M-PER lysis buffer (Thermo Fisher Scientific, #78501) containing protease inhibitors (Thermo Fisher Scientific, #87786) using ultrasonic homogenizer (20% power with 5 times every 2 seconds) to extract proteins. Then, protein concentrations were determined by BCA method (Thermo Fisher Scientific, #23225). Western blot procedures were followed by the protocol of NuPAGE system (Thermo Fisher Scientific). […] The signal intensity of protein was quantified using Image Lab software (Bio-Rad). […]

[3] = system: Wound Induced Hair Neogenesis (WIHN); assay: Wound Induced Hair Neogenesis (WIHN), regenerated hair follicles counted by CSLM; type: in vivo, mouse; details: WT mice, topical 0.1 μg per mouse on WD1, with or without Poly (I:C)
Method: (§2) Wound Induced Hair Neogenesis (WIHN). All experiments were followed with the present inventors' WIHN protocol^1,9. Briefly, hair was shaved and a 1.2 cm^2 full-thickness skin on the backs of 21-day old (telogen) male and female mice was removed by sterile scissors. A single treatment of RA (30 μl) (0.1 μg per mouse) (Millipore Sigma, R2625) and BMS493 (30 μl) (0.1 μg per mouse) (Cayman Chemical, #17418) was applied topically onto open wound on WD1 of Tlr3^−/− and WT mice, respectively. Poly (I:C) (50 μl) (5 μg per mouse) (Invivogen, tlrl-pic) was injected under the healed scab on WD3 of WT mice as described before^9,34. On WD20-24, numbers of regenerated hair follicles were visualized and quantified in the re-epithelialized skin by non-invasive confocal scanning laser microscopy (CSLM) (Caliber I.D., VIVASCOPE 1500) as published^1,9. As a vehicle (Control), ethanol (EtOH), dimethylsulfoxide (DMSO), or PBS was treated for RA, BMS493, and Poly (I:C), respectively.

wound beds = assay: Immunostaining of healing wounds; type: in vivo, mouse; details: WT mice
Method: as §2
Immunofluorescence. […] Fluorescence images were observed by fluorescence microscopy (Leica microsystems), taken pictures with ×100 (low magnification) and ×200 (high magnification), and saved as image files.

[4] = system: human scalp keratinocytes; assay: Retinoid levels (RA by LC-MS/MS, ROL and RE by HPLC-UV) in keratinocytes; type: cell-based; details: human scalp keratinocytes, rhIL6 0, 10, 50, 100 ng per ml, 2 days
From the text: Small interference RNA (siRNA) transfection. Human ALDH1A2 (Santa Cruz Biotechnology, sc41443), ALDH1A3 (Santa Cruz Biotechnology, sc43611), TLR3 (Dharmacon, M-007745-00), TRIF (Santa Cruz Biotechnology, sc106845), IRF3 (Santa Cruz Biotechnology, sc35710), NF-κB (Santa Cruz Biotechnology, sc29410) and non-targeting control (scramble) siRNAs (Santa Cruz Biotechnology, sc37007 & Dharmacon, D-001210) were commercially provided. Human scalp keratinocytes (3×10^5 cells per well) in 12-well plates were transfected with 20 nM of siRNAs using Lipofectamine® RNAiMAX (Thermo Fisher Scientific, #13778150) following the manufacturer's directions. Poly (I:C) (0.1 μg per ml) was applied to transfected cells and incubated for 48 hrs. At the end of transfection period, cells were harvested to isolate protein to perform qRT-PCR, western blot, and RA mass spectrometry.
IL6 treatment. Recombinant human interleukin 6 (rhIL6) (R&D system; 206-IL-010) was treated into human scalp keratinocytes with dose-dependent manners (0, 10, 50, and 100 ng per ml) for 2 days. Cells were harvested and lysates were used for RA measurement.
Determination of Retinoid Levels. For in vitro samples, human scalp keratinocytes were incubated with 0.5 μg per ml of Poly (I:C) for 48 hrs or siRNAs-transfected cells were incubated with 0.1 μg per ml of Poly (I:C) for 48 hrs. For in vivo samples, skin was analyzed from wild-type and Tlr3^−/− unwounded and wounded skin where wound regions (center and edge area) were cut by scalpel. Human skin was analyzed for retinoids with and without CO2 laser treatment as described. All samples were frozen at collection and stored at −80° C. until extraction. For in vitro experiments, media and cell pellets were analyzed separately. For in vivo experiments, tissues were homogenized in saline. Extraction of retinoids was performed under yellow lights using a two-step liquid-liquid extraction that has been described in detail previously using 4,4-dimethyl-RA as an internal standard for RA and retinyl acetate as an internal standard for retinol and total retinyl ester^43-46. For the extraction of retinoids, 1 to 3 ml of 0.025 M KOH in ethanol was added to tissue homogenates (in vivo) or cell culture (in vitro) samples. Then 10 ml hexane (for in vivo tissue sample) or 5 ml hexane (for in vitro cell culture sample) was added to the aqueous ethanol phase. The samples were vortexed and centrifuged for 1 to 3 min at 1000 rpm in a Dynac centrifuge (Becton Dickinson) to facilitate phase separation and pellet precipitated protein. The hexane (top) phase containing nonpolar retinoids (ROL and RE) was removed. 4 M HCl (60-180 μl) was added to the remaining aqueous ethanol phase, samples were vortexed, and then polar retinoids (RA) were removed by extraction with a second 5-10 ml aliquot of hexane as described above. […]
Levels of RA were determined by liquid chromatography-multistage tandem mass spectrometry (LC-MRM^3) which is an LC-MS/MS method utilizing two distinct fragmentation events for enhanced selectivity^43. RA was measured using a Shimadzu Prominence UFLC XR liquid chromatography system (Shimadzu, Columbia, MD) coupled to an AB Sciex 5500 or 6500+ QTRAP hybrid triple quadrupole mass spectrometer (AB Sciex, Framingham, MA) using atmospheric pressure chemical ionization (APCI) operated in positive ion mode as previously described^43. […]

CC1(C)CC=C(C#Cc2ccccc2)c2cc(/C=C/c3ccc(C(=O)O)cc3)ccc21 [BMS493]
RA and Poly (I:C)-induced KRT15 and KRT19 expression ([1]; BMS493 1 μM pre-treated): substantially inhibited | RA-induced Krt15 and Krt19 expression [2]: substantially inhibits expression | RA-induced active β-catenin (ABC) expression [2]: inhibits induction | WIHN [3]: almost completely ablated | Wnt7b and Krt15 protein expression in wound beds prior to regeneration (wound beds): decreased

CCN(CC)c1ccc(C=O)cc1 [DEAB, N,N-diethylaminobenzaldehyde]
Poly (I:C) induction of ALDH1A3, KRT15 and KRT19 protein ([1]; broad ALDH chemical inhibition): disrupted

IL-6: Recombinant human interleukin 6 (R&D system; 206-IL-010)
RA accumulation [4]: sufficient to substantially stimulate RA accumulation
